Assay [1] deals with cellular immunity (cell-mediated immunity), DTH response to sheep red blood cells. As to the kind of experiment: Delayed-Type Hypersensitivity (D.T.H.) technique, ICR mice immunized with sheep red blood cells (footpad swelling). Type of assay: in vivo, ICR mouse (female, 6 weeks). Conditions: for Increase in thickness of footpad: 24 h after eliciting injection, control 8.3 ± 1.0; for Swelling degree: ICR mice, vs control. The protocol: In this Example, the effect of BF-127 substance on cellular immunity (cell-mediated immunity) was tested according to a known Delayed-Type Hypersensitivity (D.T.H.) technique (see P. H. Lagrange, G. B. Mackaness and T. E. Mille, "J. Exp. Med", 139, 1529-1539 (1974) using mice immunized with sheep red blood cells as antigen.
(§1) Thus, 10^8 sheep red blood cells (SRBC) suspended in 0.05 ml of physiological saline were subcutaneously injected at the time of immunization to the right hind footpad of each ICR mouse under test (female, 6 weeks aged) to establish delayed-type hypersensitivity. Simultaneously with the immunization, a varying dose of BF-127 substance was intraperitoneally injected into each test mouse. Four days later, 10^8 sheep red blood cells were subcutantaneously injected into the left hind footpad of each test mouse for elicitation of the D.T.H. response. 24 hours after eliciting injection, the thickness of the left hind footpad was measured with a vernier caliper to evaluate the degree of the resulting edema in the footpad. The degree of the swelling serves to estimate the cellular immunity involved. In the Table, the swelling degree is expressed in terms of the values calculated by the equation: [formula]
By way of reference, the test results conducted by the same procedure as above except that BF-127 substance was orally administered are indicated in Table 2 below.

For assay [2] the test system is unchanged. In words: Delayed-type hypersensitivity (footpad swelling), CDF1 mice. Type of assay: in vivo, CDF1 mouse (male, 9 weeks). As to the method:
as §1
The same test procedure as described in Example 7 was repeated but using CDF1 (DBA/2xBALB/CF1) male mice (9 weeks old), in which varying doses of BF-127 substance were intraperitoneally injected or orally administered into each test mouse. The tests results are shown in Table 3 below where the swelling degree has the same significance as in Example 7.

The next assay concerns Gardner Lymphoma. As to the kind of experiment: Inhibitory effect on growth of transplanted Gardner Lymphoma. The assay is classed as in vivo, C3H/He mouse (female, 10 weeks). To be noted: for Average weight of tumors / Inhibition: 5 days, 30 days after transplantation; for Average weight of tumors: untreated 1310 mg; for Inhibition: tumor growth. The text has this: 10^5 Gardner Lymphoma cells were transplanted subcutaneously to the inguinal of each C3H/He mouse under test (female, 10 weeks old, 5 mice per group).

Assay [3] deals with IMC Carcinoma. As to the kind of experiment: Inhibitory effect on IMC Carcinoma, 5×10^6 cells transplanted. To be noted: 5 days, 30 days; for Average weight of tumors: untreated 12380 mg; for Inhibition: tumor growth. The assay is classed as in vivo, CDF1 mouse (female, 14 weeks). The text has this: 5×10^6 IMC tumor cells were transplanted hypodermically to the inguinal section of each CDF1 mouse under test (female, 14 weeks old, 5 mice per group).

Assay [4] has as its system IMC Carcinoma. As to the kind of experiment: Inhibitory effect on IMC Carcinoma, 1×10^6 cells inoculated. To be noted: for Average weight of tumors: untreated 5635 mg; for Inhibition: tumor growth. Type of assay: in vivo, CDF1 mouse (female, 14 weeks). The text has this: This Example illustrates the inhibitory effect of BF-127 substance on IMC Carcinoma. […] Pathological studies have shown that the above tumor is a sort of epithelial undifferentiated tumors.
5×10^6 IMC tumor cells were transplanted hypodermically to the inguinal section of each CDF1 mouse under test (female, 14 weeks old, 5 mice per group). 8 days after transplantation, a varying dose of BF-127 substance was intraperitoneally injected into each test mouse once a day for five successive days. 30 days after transplantation, the tumor formed were removed and weighed to evaluate the inhibitory effect of BF-127 substance on tumor growth in terms of average weight of the tumors formed in 5 mice.
Further tests were conducted following the procedure as above wherein 1×10^6 IMC tumor cells were inoculated and BF-127 substance was intraperitoneally injected (I.P.) or orally administered (P.O.).

The subject of assay [5] is cellular immunity (cell-mediated immunity), DTH response to sheep red blood cells. As to the kind of experiment: Delayed-type hypersensitivity (footpad swelling), CDF1 mice. The assay is classed as in vivo, CDF1 mouse (male, 9 weeks). Conditions: other strains of mice of different ages.
For another assay, the system named is alkaline phosphatase. To be noted: cited from earlier work.
Assay [6] deals with delayed-type hypersensitivity. To be noted: cited from earlier work.
In a further assay the test system is antibody-forming cells. To be noted: cited from earlier work.
In another assay the test system is immune response. To be noted: Japanese Patent Pre-publication No. 44632/79; U.S. Pat. No. 4,238,507; cited from earlier work.
The mark [7] stands for this setting: 20 μg/mouse (Control) i.p. once a day.
Setting [8] is: 100 μg/mouse (Control) i.p. once a day.

One may read the Inhibition as the relative decrease from the control value, in per cent. For the compound `O=C(O)c1ccc(CO)c(O)c1` [BF-127, 3-hydroxy-4-(hydroxymethyl) benzoic acid], the “Increase in thickness of footpad” value was 14.3 ± 1.1 × 0.1 mm in [1] (0.1 μg/mouse i.p.); 19.4 ± 1.8 × 0.1 mm in assay [1] (1 μg/mouse i.p.); 15.5 ± 1.3 × 0.1 mm in assay [1] (10 μg/mouse i.p.); 15.7 ± 0.3 × 0.1 mm in assay [1] (100 μg/mouse i.p.); 13.1 ± 0.4 × 0.1 mm in assay [1] (1 mg/mouse i.p.). Besides, the Swelling degree in [1] (0.1 μg/mouse i.p.) is listed as 172%; in assay [1] (1 μg/mouse i.p.) it was 234%; in assay [1] (10 μg/mouse i.p.) it was 187%; in assay [1] (10 μg/mouse oral), 146%; in [1] (100 μg/mouse i.p.) it was 189%; in assay [1] (100 μg/mouse oral), 148%. Also, the Swelling degree in assay [1] (1 mg/mouse i.p.) is given as 158%; in [1] (1 mg/mouse oral), 133%; in [2] (0.1 μg/mouse, I.P. injection), 119%; in [2] (0.1 μg/mouse, oral administration), 103%; in [2] (1 μg/mouse, I.P. injection), 129%; in assay [2] (1 μg/mouse, oral administration) it was 115%. Further, the Swelling degree in assay [2] (10 μg/mouse, I.P. injection) was determined as 131%; in assay [2] (10 μg/mouse, oral administration) it was 122%; in assay [2] (100 μg/mouse, I.P. injection) it was 133%; in [2] (100 μg/mouse, oral administration), 142%; in assay [2] (1 mg/mouse, I.P. injection), 125%; in assay [2] (1 mg/mouse, oral administration), 138%. For the same compound, the “potentiating effect on establishment of cellular immunity” value in [1] (i.p., 1 mg to 0.1 μg/mouse) is “intensive potentiating effect”. Moreover, the “potentiating effect on DTH response” value in assay [1] (intravenous injection), in assay [1] (oral administration) and in assay [1] (subcutaneous injection) was “potentiating effect has also been observed” each time. Also, the “potentiation of the DTH response” value in assay [1] (oral, doses of 1 mg to 10 μg/mouse) is on record as 30-50%. Further, the “Average weight of tumors” value was 950 mg in the assay with Gardner Lymphoma (0.1 μg/mouse i.p. once a day); 930 mg in the assay with Gardner Lymphoma (1 μg/mouse i.p. once a day); 570 mg with Gardner Lymphoma (10 μg/mouse i.p. once a day); 5740 mg in the assay on IMC Carcinoma [3] (1 μg/mouse i.p. once a day); 6190 mg in the assay with IMC Carcinoma [3] (10 μg/mouse i.p. once a day); 7970 mg in the assay with IMC Carcinoma [3] (100 μg/mouse i.p. once a day). Also, the “Average weight of tumors” value with IMC Carcinoma [4] (1 μg/mouse (I.P.)) is reported as 2206 mg; with IMC Carcinoma [4] (1 μg/mouse (P.O.)), 2538 mg; with IMC Carcinoma [4] (10 μg/mouse (I.P.)), 1312 mg; with IMC Carcinoma [4] (10 μg/mouse (P.O.)), 2638 mg. Further, the “inhibition of tumor growth compared to Bleomycin” value in the assay with Gardner Lymphoma (BF-127 at 10 μg/mouse) was “superior or comparable to Bleomycin”. The Inhibition came to 27.5% in the assay on Gardner Lymphoma (0.1 μg/mouse i.p. once a day); 29.0% in the assay with Gardner Lymphoma (1 μg/mouse i.p. once a day); 56.5% in the assay with Gardner Lymphoma (10 μg/mouse i.p. once a day); 53.6% with IMC Carcinoma [3] (1 μg/mouse i.p. once a day); 50.0% with IMC Carcinoma [3] (10 μg/mouse i.p. once a day); 35.6% in the assay with IMC Carcinoma [3] (100 μg/mouse i.p. once a day). Further, the Inhibition worked out at 60.8% with IMC Carcinoma [4] (1 μg/mouse (I.P.)), 55.0% with IMC Carcinoma [4] (1 μg/mouse (P.O.)), 76.8% in the assay on IMC Carcinoma [4] (10 μg/mouse (I.P.)) and 53.0% in the assay with IMC Carcinoma [4] (10 μg/mouse (P.O.)). The immunopotentiating effect result in [5] was “also observed”.
Take `NC(C(=O)O)c1ccc(C=O)c(O)c1` (stereo not drawn) [Forphenicine]: the “inhibition of alkaline phosphatase” value with alkaline phosphatase is recorded as “strong inhibitor”. In assay [6], the delayed-type hypersensitivity entry is recorded as “enhances delayed-type hypersensitivity”. Also, the “number of antibody-forming cells” value in the assay with antibody-forming cells is “increases the number of antibody-forming”.
With `CO[C@@]12[C@H](COC(N)=O)C3=C(C(=O)C(C)=C(N)C3=O)N1C[C@@H]1N[C@@H]12` [MMC, Mytomycin, reference compound], in the assay with IMC Carcinoma [3] (setting [7]), the “Average weight of tumors” value was 5510 mg and the Inhibition stood at 55.5%.
In the case of `NC(C(=O)O)c1ccc(CO)c(O)c1` (stereo not drawn) [forphenicinol], the immunopotentiating activity result in the assay on immune response is on record as “found to have an immunopotentiating activity”.
Take Bleomycin [reference compound]: the “Average weight of tumors” value with Gardner Lymphoma (setting [8]) was 760 mg; with IMC Carcinoma [3] (100 μg/mouse i.p. once a day), 5770 mg. In addition, the Inhibition worked out at 42.0% in the assay on Gardner Lymphoma (setting [8]) and 53.4% in the assay with IMC Carcinoma [3] (100 μg/mouse i.p. once a day).
